Reference: patent US12467927B2, “Fluorescence resonance energy transfer (FRET) nanoprobe and preparation method and use thereof” (QILU UNIVERSITY OF TECHNOLOGY, priority 2022, dated 2025)

Experiment: Zeta potential determination
Assay type: physicochemical
Description: Size and Zeta potential determinations were conducted on a Zetasizer Nano ZS (ZEN 3600, Malvern Instruments Ltd.). Transmission electron microscopy (TEM) images were determined by a transmission electron microscope (JEM-2100, JEOL). The fluorescence was measured by an F-4600 Fluorescence Spectrophotometer (Japan); the confocal fluorescence images of cells were obtained by a Nikon laser confocal microscope (Nikon, Japan).
The synthesized HMSN were characterized by TEM and dynamic light scattering (DLS). […] Meanwhile, the particle size distribution measured by DLS was mainly around 140 nm (FIG. 2). The experimental data was matched up with each other. […] The particle size of PAMAM (G=1.5) dendrimer was characterized by TEM. […] The particle size distribution measured by DLS was around 8 nm (FIG. 5). […] Meanwhile, to prevent the early leakage of DOX, the DOX was encapsulated by the RVRR peptide and PAMAM/TPE. To verify the successful encapsulation of HMSN/DOX, TEM characterization was conducted. […] Characterized by DLS and Zeta potential, the particle size distribution of the transparent thin layer structure was around 160 nm (FIG. 7), and a Zeta potential was 3.25 mV (FIG. 8).

## COc1cccc2c1C(=O)c1c(O)c3c(c(O)c1C2=O)C[C@@](O)(C(=O)CO)C[C@@H]3O[C@H]1C[C@H](N)[C@H](O)[C@H](C)O1 [DOX, doxorubicin]
  zeta potential: 24.3 mV

## O=C(O)c1ccc(C(=C(c2ccccc2)c2ccccc2)c2ccccc2)cc1 [TPE-COOH, 1-(4-carboxyphenyl)-1,2,2-triphenylethylene]
  zeta potential: −8.6 mV
